Reference: article PMC12467433, “Isoniazid-Derived Hydrazones Featuring Piperazine/Piperidine Rings: Design, Synthesis, and Investigation of Antitubercular Activity” (Biomolecules, 2025)
≈ marks a conversion by molar mass, not a printed value. Like-named read-outs stand apart in the source and are kept apart here.

Assays:
Mtb H37Rv = experiment: Microplate Alamar Blue Assay (MABA), Mtb H37Rv; assay type: cell-based, Mycobacterium tuberculosis; conditions: for MIC: MABA, one-week incubation
InhA = target: T1, InhA (Mycobacterium tuberculosis, UniProt P9WGR1); experiment: InhA inhibition (NADH oxidation at 340 nm, DDCoA substrate); assay type: biochemical; conditions: for inhibition at 50 µM: at 50 μM concentration, NI: No inhibition
T1 construct: made in house
T1 sequence (P9WGR1 whole entry, looked up): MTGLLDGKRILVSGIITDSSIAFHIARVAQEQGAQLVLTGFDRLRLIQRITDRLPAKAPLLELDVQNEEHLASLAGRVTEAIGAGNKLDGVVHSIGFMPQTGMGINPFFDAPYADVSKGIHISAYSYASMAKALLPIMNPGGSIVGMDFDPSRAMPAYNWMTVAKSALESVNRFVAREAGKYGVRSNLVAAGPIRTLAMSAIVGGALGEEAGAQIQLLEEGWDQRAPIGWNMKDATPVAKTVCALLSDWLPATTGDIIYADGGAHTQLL

[1] = MTT cytotoxicity assay, HEK 293; assay type: cell-based; conditions: human, HEK 293 cells, HEK 293, MTT, triplicate, read-out: Toxicity IC50
Source text: (§1) 2.2.2. Assay for Host Cytotoxicity Determination
(§2) The MTT (3-(4,5-dimethylthiazol-2-yl)-2,5-diphenyltetrazolium bromide) assay was applied to determine the cytotoxicity of the synthesized molecules against Human Embryonic Kidney cells (HEK 293) and adenocarcinomic human alveolar basal epithelial cells (A549) cell lines, obtained from the American Type Culture Collection (ATCC) with the accession numbers ATCC CRL-1573 and ATCC CCL-185, respectively. […] A vehicle control containing 1% DMSO in culture medium without any compound was included to account for any solvent-related effects. Cells were seeded at a density of 1 × 10^4 cells per well in a sterile 96-well microtiter plate and incubated for 24 h to allow attachment. Following this, the compounds were added in ten-fold serial dilutions ranging from 100 μM to 0.001 μM, and the plates were incubated for 48 h at 37 °C with 5% CO2.
(§3) After incubation, the medium was removed and replaced with 10 μL of MTT solution (5 mg/mL) in each well, followed by a 3 h incubation under the same conditions. The MTT reagent was then discarded, and 100 μL of DMSO was added to each well to solubilize the formazan crystals. Absorbance was measured at 580 nm using a Thermo Scientific Varioskan LUX microplate reader, with blanks subtracted from each value. All experiments were performed in three independent biological replicates, for every concentration tested. The IC50 values were calculated using GraphPad Prism 10.6.0 [28, 29].

[2] = MTT cytotoxicity assay, A549; assay type: cell-based; conditions: human, A549 cells, triplicate, read-out: Toxicity IC50
Source text: as §1, §2, §3

[3] = Mycobacterium tuberculosis, H37RV, 168 h

Compound	MIC50 (Mtb H37Rv; Mycobacterium tuberculosis) [µM]	MIC (Mtb H37Rv; [3]) [µM]	inhibition at 50 µM (InhA) [%]	MIC (Mtb H37Rv) [µM]	IC50 at 48 h [1] [µM]	IC50 at 48 h [2] [µM]	IC50 (InhA; read-out: IC50 against InhA enzyme) [µM]	MIC50 (Mtb H37Rv) [µM]
NNC(=O)c1ccncc1 [INH, isonicotinic acid hydrazide, reference compound]	0.23 ± 0.04 (≈ 0.0315 µg/mL)	0.39 (≈ 0.0535 µg/mL)	–	–	–	–	–	–
O=C(NN=Cc1ccc(N2CCN(c3ccccc3)CC2)cc1)c1ccncc1 [IP1, N′-(4-(4-Phenylpiperazin-1-yl)benzylidene)isonicotinohydrazide]	–	50 (≈ 19.3 µg/mL)	< 10	–	–	–	–	–
O=C(NN=Cc1ccc(N2CCN(c3ccccc3F)CC2)cc1)c1ccncc1 [IP2, N′-(4-(4-(2-Fluorophenyl)piperazin-1-yl)benzylidene)isonicotinohydrazide]	–	> 100	19	>100	–	–	–	–
O=C(NN=Cc1ccc(N2CCN(c3ccc(Cl)cc3)CC2)cc1)c1ccncc1 [IP3, N′-(4-(4-(4-Chlorophenyl)piperazin-1-yl)benzylidene)isonicotinohydrazide]	–	50 (≈ 21 µg/mL)	21	–	–	–	–	–
O=C(NN=Cc1ccc(N2CCN(c3ccc(Br)cc3)CC2)cc1)c1ccncc1 [IP4, N′-(4-(4-(4-Bromophenyl)piperazin-1-yl)benzylidene)isonicotinohydrazide]	–	100 (≈ 46.4 µg/mL)	< 10	–	–	–	–	–
Cc1ccc(N2CCN(c3ccc(C=NNC(=O)c4ccncc4)cc3)CC2)c(C)c1 [IP5, N′-(4-(4-(2,4-Dimethylphenyl)piperazin-1-yl)benzylidene)isonicotinohydrazide]	–	50 (≈ 20.7 µg/mL)	16	–	–	–	–	–
O=C(NN=Cc1ccc(N2CCN(c3ccc(C(F)(F)F)cc3)CC2)cc1)c1ccncc1 [IP6, N′-(4-(4-(4-(Trifluoromethyl)phenyl)piperazin-1-yl)benzylidene)isonicotinohydrazide]	–	12.5 (≈ 5.67 µg/mL)	37	–	–	–	–	–
COc1ccc(N2CCN(c3ccc(C=NNC(=O)c4ccncc4)cc3)CC2)cc1 [IP7, N′-(4-(4-(4-Methoxyphenyl)piperazin-1-yl)benzylidene)isonicotinohydrazide]	0.74 ± 0.1 (≈ 0.307 µg/mL)	≤ 0.78	10	–	–	–	–	–
O=C(NN=Cc1ccc(N2CCN(c3ccccn3)CC2)cc1)c1ccncc1 [IP8, N′-(4-(4-(Pyridin-2-yl)piperazin-1-yl)benzylidene)isonicotinohydrazide]	0.31 ± 0.21 (≈ 0.12 µg/mL)	≤ 0.78	< 10	–	> 100	> 100	–	–
O=C(NN=Cc1ccc(N2CCN(c3ncccn3)CC2)cc1)c1ccncc1 [IP9, N′-(4-(4-(Pyrimidin-2-yl)piperazin-1-yl)benzylidene)isonicotinohydrazide]	0.79 ± 0.23 (≈ 0.306 µg/mL)	≤ 0.78	< 10	–	> 100	> 100	–	–
CN1CCN(c2ccc(C=NNC(=O)c3ccncc3)cc2)CC1 [IP10, N′-(4-(4-Methylpiperazin-1-yl)benzylidene)isonicotinohydrazide]	0.31 ± 0.04 (≈ 0.1 µg/mL)	≤ 0.78	30	–	> 100	> 100	–	–
O=C(NN=Cc1ccc(N2CCN(C3CCCCC3)CC2)cc1)c1ccncc1 [IP11, N′-(4-(4-Cyclohexylpiperazin-1-yl)benzylidene)isonicotinohydrazide]	0.29 ± 0.05 (≈ 0.114 µg/mL)	≤ 0.78	81	–	> 100	> 100	26.4 ± 3.97	0.29 (≈ 0.114 µg/mL)
CCOC(=O)C1CCN(c2ccc(C=NNC(=O)c3ccncc3)cc2)CC1 [IP12, Ethyl 1-(4-((2-isonicotinoylhydrazono)methyl)phenyl)piperidine-4-carboxylate]	0.47 ± 0.05 (≈ 0.179 µg/mL)	≤ 0.78	17	–	> 100	> 100	–	–
NC(=O)C1CCN(c2ccc(C=NNC(=O)c3ccncc3)cc2)CC1 [IP13, 1-(4-((2-Isonicotinoylhydrazono)methyl)phenyl)piperidine-4-carboxamide]	0.53 ± 0.24 (≈ 0.186 µg/mL)	≤ 0.78	< 10	–	> 100	> 100	–	–
